Source: paper PMC7822874, “Chemoprotective antimalarials identified through quantitative high-throughput screening of Plasmodium blood and liver stage parasites” (Scientific Reports, 2021)
“And” between values parts separate entries of the source, which are not always exact repeats. Equal values may be shown once. Read-outs that look alike come from different tables or passages of the source.

How the values were obtained:
[1] = system: T1, Plasmodium falciparum Dd2-attB (parental line), asexual blood stages; experiment: microbe, parasite or virus in culture; set-up: replicate k of 3 (each line is one of three independent assays; the three lines of one compound and parasite line follow each other); conditions: n = 1; for Individual replicates / Log AC50 (M): 72 h; for AC50: Plasmodium falciparum, DD2, 72 h, read-out: Individual replicates / Log AC50 (converted)
T1 construct: Dd2-attB, the isogenic parental line
Protocol: (§1) The overexpression of the fumarate-dependent yeast DHODH confers resistance to compounds that inhibit the parasite mETC, or the parasite DHODH enzyme that depends on ubiquinone provided by the parasite mETC. Assays were performed in three independent assays on a subset of compounds, and differences between the Dd2-attB parental line and the ScDHODH transgenic line were analyzed using two-sided Student’s t-tests.

[2] = system: T2, Plasmodium falciparum Dd2-attB-ScDHODH (transgenic line expressing yeast DHODH), asexual blood stages; experiment: organism not typed; set-up: replicate k of 3 (each line is one of three independent assays; the three lines of one compound and parasite line follow each other)
T2 construct: Dd2-attB-ScDHODH, the transgenic line that expresses yeast DHODH
Protocol: as §1

[3] = 72 h; n = 1; read-out: Individual replicates / Log AC50 (converted)

Structure (SMILES) | Individual replicates / Log AC50 (M) [1] | Individual replicates / Log AC50 (M) ([2]; 72 h, n = 1) | AC50 [1] [µM] | AC50 [2, 3] [M] | Individual replicates / Log AC50 (M) ([2]; 72 h; n = 1) | AC50 ([2]; 72 h, read-out: Individual replicates / Log AC50 (M) (converted); n = 1)
COc1ccc(NC2=C(c3ccc(C(F)(F)F)cc3)C(=O)c3ccccc32)cc1 [NCGC00107310-02] | -6.3986 Log AC50 (M) and -6.2986 Log AC50 (M) and -6.5486 Log AC50 (M) | -5.1486 Log AC50 (M) and -5.2986 Log AC50 (M) | – | – | – | –
Cc1cccc(N2CCN(C(=O)Cn3ncc4c3-c3ccccc3OC4)CC2)c1C [NCGC00112661-03] | -4.9486 Log AC50 (M) and -4.7486 Log AC50 (M) | -4.8986 Log AC50 (M) and -5.0986 Log AC50 (M) | – | – | – | –
O=C(/C=C/c1cn(CC(O)CN2CCCCCC2)c2ccccc12)c1ccc(Br)cc1 (stereo not shown) [NCGC00114921-03] | -5.2486 Log AC50 (M) and -5.0986 Log AC50 (M) | -5.0486 Log AC50 (M) and -5.1986 Log AC50 (M) | 4.48 | 4.48e-06 | – | –
CCOc1ccc(-c2[nH]c3c(C#N)cnn3c2NC2CCCC2)cc1 [NCGC00120007-02] | -4.7486 Log AC50 (M) | -4.8486 Log AC50 (M) | 14.2 | 1.78e-05 | – | –
O=C(Nc1ccccc1F)c1ccc(Cn2nc(N3CCN(c4ccccc4)CC3)ccc2=O)o1 [NCGC00127944-02] | -5.1486 Log AC50 (M) and -5.0986 Log AC50 (M) | -5.0986 Log AC50 (M) and -5.0486 Log AC50 (M) | 7.97 | 8.94e-06 | – | –
COc1cc(CN2CCc3nc(N4CCN(c5ncccn5)CC4)ncc3C2)cc(OC)c1OC [NCGC00131437-02] | -5.3486 Log AC50 (M) and -5.1486 Log AC50 (M) | -5.1486 Log AC50 (M) and -5.0986 Log AC50 (M) | 5.64 | 7.1e-06 | – | –
CCOc1ccc(NC(=O)c2c(NCc3cccnc3)sc3c2CCCC3)cc1 [NCGC00140582-02] | -5.3486 Log AC50 (M) and -5.2986 Log AC50 (M) | -5.2486 Log AC50 (M) and -5.1486 Log AC50 (M) | 5.64 | 6.33e-06 | – | –
CCCCN1CCCc2cc(CN(CCCN3CCOCC3)C(=O)Nc3ccc(CC)cc3)ccc21 [NCGC00140595-02] | -5.0986 Log AC50 (M) | -5.0486 Log AC50 (M) | 7.97 | 7.97e-06 | – | –
CCCN1CCCc2cc(CN(CCCN3CCOCC3)C(=O)Nc3ccc(Cl)c(Cl)c3)ccc21 [NCGC00140597-02] | -5.3486 Log AC50 (M) and -5.2986 Log AC50 (M) | -5.3986 Log AC50 (M) and -5.0986 Log AC50 (M) | 3.99 | 3.99e-06 | – | –
Oc1ccc(CNc2cccc(C(F)(F)F)c2)c2cccnc12 [NCGC00177833-02] | – | -4.7486 Log AC50 (M) | 17.8 | 1.59e-05 | – | –
Oc1ccc(CNCc2ccc3c(c2)OCO3)c2cccnc12 [NCGC00183368-01] | -4.7986 Log AC50 (M) | -4.7486 Log AC50 (M) | 15.9 | 1.59e-05 | – | –
CN1CCN(C2CCN(Cc3ccc(O)c4ncccc34)CC2)CC1 [NCGC00183373-01] | – | – | 17.8 | 1.59e-05 | – | –
Oc1ccc(CNc2cccc(F)c2F)c2cccnc12 [NCGC00183376-01] | -4.7486 Log AC50 (M) | – | 17.8 | 1.78e-05 | -4.7486 Log AC50 (M) | –
Oc1ccc(COc2cccc3ccccc23)c2cccnc12 [NCGC00183380-01] | -4.7986 Log AC50 (M) and -4.7486 Log AC50 (M) | – | 20 | – | – | 1.59e-05
Oc1ccc(COCc2ccc(F)cc2)c2cccnc12 [NCGC00183381-01] | -4.7986 Log AC50 (M) | -4.7486 Log AC50 (M) and -4.7986 Log AC50 (M) | 17.8 | 1.59e-05 | – | –
Oc1cc(Nc2ccncc2)cc2cccnc12 [NCGC00183791-01] | -4.7486 Log AC50 (M) and -4.7986 Log AC50 (M) | -4.7486 Log AC50 (M) | 20 | 2e-05 | – | –
CN(C)c1ccc(-c2cc(O)c3ncccc3c2)cc1 [NCGC00183795-01] | -5.0986 Log AC50 (M) and -5.1486 Log AC50 (M) | -4.7486 Log AC50 (M) and -4.9986 Log AC50 (M) | 8.94 | – | – | –
Oc1cc(NCCN2CCOCC2)cc2cccnc12 [NCGC00183799-01] | -5.1486 Log AC50 (M) and -5.2486 Log AC50 (M) | – | 6.33 | 8.94e-06 | – | –
O=C(Nc1ccccc1F)c1ccc(O)c2ncccc12 [NCGC00183800-01] | -5.1986 Log AC50 (M) and -5.2486 Log AC50 (M) | -5.2986 Log AC50 (M) and -5.0486 Log AC50 (M) | 7.1 | 5.64e-06 | – | –

Structure (SMILES) | Individual replicates / Log AC50 (M) [1] | Individual replicates / Log AC50 (M) ([2]; 72 h, n = 1) | AC50 [1] [µM] | AC50 [2, 3] [M] | Individual replicates / Log AC50 (M) ([2]; 72 h; n = 1) | AC50 ([2]; 72 h, read-out: Individual replicates / Log AC50 (M) (converted); n = 1)
CN(C)CCCNC(=O)c1ccc(-c2cc(O)c3ncccc3c2)cc1 [NCGC00183808-03] | -4.9486 Log AC50 (M) and -4.8986 Log AC50 (M) | -4.8486 Log AC50 (M) | 14.2 | 1.26e-05 | – | –
Oc1ccc(NCc2ccccc2F)c2cccnc12 [NCGC00184883-01] | -5.0986 Log AC50 (M) and -5.0486 Log AC50 (M) | -5.0986 Log AC50 (M) | 12.6 | 1.26e-05 | – | –
Oc1ccc(Nc2ccccc2F)c2cccnc12 [NCGC00184886-01] | -5.6486 Log AC50 (M) and -5.5486 Log AC50 (M) | -5.5986 Log AC50 (M) | 3.56 | 4.48e-06 | – | –
O=[S+]([O-])(Nc1ccc(O)c2ncccc12)c1ccccc1F [NCGC00184887-01] | -5.0986 Log AC50 (M) and -5.1486 Log AC50 (M) | – | 14.2 | 1.42e-05 | – | –
Oc1ccc(CNc2ccc(C(F)(F)F)cc2F)c2cccnc12 [NCGC00184889-01] | – | – | 20 | 1.78e-05 | – | –
Oc1ccc(CNc2ccccc2Cl)c2cccnc12 [NCGC00184891-01] | -4.6986 Log AC50 (M) | -4.7486 Log AC50 (M) | 15.9 | 1.42e-05 | – | –
Oc1ccc(CNc2cccc(F)c2)c2cccnc12 [NCGC00184892-01] | -4.7486 Log AC50 (M) and -4.8486 Log AC50 (M) | -4.7486 Log AC50 (M) | 12.6 | 1.78e-05 | – | –
Oc1ccc(CNc2ccc(F)cc2Cl)c2cccnc12 [NCGC00184893-01] | -4.7986 Log AC50 (M) and -4.8486 Log AC50 (M) | -4.7986 Log AC50 (M) | 15.9 | 1.42e-05 | – | –
Oc1ccc(CNc2ccc(F)cc2F)c2cccnc12 [NCGC00184894-01] | -4.9486 Log AC50 (M) and -5.0486 Log AC50 (M) | -4.8486 Log AC50 (M) | 14.2 | 1.78e-05 | – | –
Cc1ccc(NCc2ccc(O)c3ncccc23)c(F)c1 [NCGC00184895-01] | -4.7986 Log AC50 (M) | -4.7486 Log AC50 (M) | 17.8 | 1.59e-05 | – | –
Oc1ccc(CNc2ccccc2C(F)(F)F)c2cccnc12 [NCGC00184897-01] | -4.8986 Log AC50 (M) and -4.7986 Log AC50 (M) | -4.8486 Log AC50 (M) and -4.7486 Log AC50 (M) | 12.6 | 1.59e-05 | – | –
Oc1ccc(CNc2ccccn2)c2cccnc12 [NCGC00184898-01] | -4.7486 Log AC50 (M) and -4.6986 Log AC50 (M) | -4.7486 Log AC50 (M) | 17.8 | 1.42e-05 | – | –
Oc1ccc(/C=C/c2ccccc2)c2cccnc12 [NCGC00184900-01] | -5.2486 Log AC50 (M) and -5.2986 Log AC50 (M) | -5.1986 Log AC50 (M) and -4.7986 Log AC50 (M) | 6.33 | – | – | –
Oc1ccc(-c2ccccc2F)c2cccnc12 [NCGC00184901-01] | -4.8486 Log AC50 (M) and -4.8986 Log AC50 (M) | -4.8486 Log AC50 (M) and -4.7986 Log AC50 (M) | 15.9 | 1.42e-05 | – | –
Oc1ccc(CCc2ccccc2)c2cccnc12 [NCGC00184902-01] | -5.2486 Log AC50 (M) | -4.8486 Log AC50 (M) and -5.1486 Log AC50 (M) | 7.1 | 7.1e-06 | – | –
Oc1ccc(/C=C/c2ccccc2F)c2cccnc12 [NCGC00184903-01] | -5.2486 Log AC50 (M) and -5.1486 Log AC50 (M) | -4.9986 Log AC50 (M) and -5.1986 Log AC50 (M) | 6.33 | 6.33e-06 | – | –
Oc1ccc(CCc2c(F)cccc2F)c2cccnc12 [NCGC00184906-01] | -5.2486 Log AC50 (M) and -5.2986 Log AC50 (M) | -5.0486 Log AC50 (M) and -5.1486 Log AC50 (M) | 5.64 | 6.33e-06 | – | –
Oc1ccc(Oc2ccccc2F)c2cccnc12 [NCGC00184907-01] | -4.9986 Log AC50 (M) and -5.0486 Log AC50 (M) | -4.8986 Log AC50 (M) and -4.9486 Log AC50 (M) | 8.94 | 1.42e-05 | – | –
Oc1ccc(CNCc2ccccc2F)c2cccnc12 [NCGC00184908-01] | -5.3986 Log AC50 (M) and -5.0486 Log AC50 (M) and -5.1986 Log AC50 (M) | -4.7486 Log AC50 (M) and -5.1486 Log AC50 (M) (2×) | – | – | – | –
